Test results published in ChEMBL document CHEMBL2073825, “Ex vivo reversal of chemoresistance by tariquidar (XR9576)” (Anticancer Drugs, 2004).

Molecular target: ATP-dependent translocase ABCB1 (Homo sapiens, UniProt P08183)
Assay: TP_TRANSPORTER: Vinorelbine-induced cytotoxicity in P-gp positive tumor
Type: functional, tissue-based, Neoplasm

Chain of ATP-dependent translocase ABCB1 (P08183 whole entry): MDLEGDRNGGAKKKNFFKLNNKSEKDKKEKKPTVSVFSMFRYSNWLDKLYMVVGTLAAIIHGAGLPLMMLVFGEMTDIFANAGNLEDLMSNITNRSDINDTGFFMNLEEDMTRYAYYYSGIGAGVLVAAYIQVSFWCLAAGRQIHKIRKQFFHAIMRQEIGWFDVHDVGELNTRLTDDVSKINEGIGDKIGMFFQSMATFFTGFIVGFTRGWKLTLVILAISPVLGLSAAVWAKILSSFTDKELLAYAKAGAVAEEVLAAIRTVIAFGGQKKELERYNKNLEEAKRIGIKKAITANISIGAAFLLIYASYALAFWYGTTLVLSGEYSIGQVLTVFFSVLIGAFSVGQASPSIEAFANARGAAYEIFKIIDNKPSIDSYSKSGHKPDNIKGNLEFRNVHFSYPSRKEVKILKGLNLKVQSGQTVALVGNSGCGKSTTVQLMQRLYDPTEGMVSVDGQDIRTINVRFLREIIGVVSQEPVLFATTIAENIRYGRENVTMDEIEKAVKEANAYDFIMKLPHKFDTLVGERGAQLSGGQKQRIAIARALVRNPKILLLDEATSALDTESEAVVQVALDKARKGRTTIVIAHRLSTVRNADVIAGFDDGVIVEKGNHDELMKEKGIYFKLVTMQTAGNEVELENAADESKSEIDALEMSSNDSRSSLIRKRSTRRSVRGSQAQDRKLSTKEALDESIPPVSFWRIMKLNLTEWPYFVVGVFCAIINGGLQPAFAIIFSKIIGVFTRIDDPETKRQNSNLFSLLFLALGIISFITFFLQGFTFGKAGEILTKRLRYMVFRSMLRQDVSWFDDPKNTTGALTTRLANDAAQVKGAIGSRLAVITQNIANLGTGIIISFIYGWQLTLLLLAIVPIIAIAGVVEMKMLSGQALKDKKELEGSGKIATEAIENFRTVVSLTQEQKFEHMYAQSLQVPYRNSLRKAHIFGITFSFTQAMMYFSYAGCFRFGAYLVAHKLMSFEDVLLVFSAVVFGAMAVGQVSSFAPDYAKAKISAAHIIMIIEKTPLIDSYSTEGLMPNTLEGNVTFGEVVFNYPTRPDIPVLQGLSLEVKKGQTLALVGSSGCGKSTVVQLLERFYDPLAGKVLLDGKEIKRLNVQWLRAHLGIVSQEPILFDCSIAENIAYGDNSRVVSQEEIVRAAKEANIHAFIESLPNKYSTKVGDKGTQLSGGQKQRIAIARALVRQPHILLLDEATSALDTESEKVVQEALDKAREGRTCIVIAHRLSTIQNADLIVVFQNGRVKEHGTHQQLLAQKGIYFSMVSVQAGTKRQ

SMILES: COc1cc2c(cc1OC)CN(CCc1ccc(NC(=O)c3cc(OC)c(OC)cc3NC(=O)c3cnc4ccccc4c3)cc1)CC2 [TARIQUIDAR]
- Activity: inhibitor [+]
